Experimental data from patent US20220193081A1 (Ellamed IP & Services PTE. LTD., priority 2019, published 2022).
Where two headings read alike, the source gives them in different places.

Type: physicochemical
Description: 840 mg of sildenafil base (Carbosynth) was introduced into 40 ml of 50% aqueous ethanol at an unadjusted pH of 7.7. […] Finally, the pH of the mixture was further lowered to a pH of approximately 4 by the introduction of additional 1M HCl upon which the mixture began to solubilize.
840 mg of sildenafil base (Carbosynth), together with 840 mg of sucralose was introduced into 40 ml of 50% aqueous ethanol at an unadjusted pH of 7.7. […] The pH of the mixture was further lowered to a pH of approximately 4.6 by the introduction of additional 1M HCl upon which the mixture began to solubilize. Additional 1M HCl was added to the mixture until it completely solubilized at a pH of 3.83.
945 mg of sildenafil base (Carbosynth), together with 945 mg of sucralose was introduced into 45 ml of 50% aqueous ethanol at an unadjusted pH of 7.7. […] The pH of the mixture was then lowered to by the stepwise introduction of 1M HCl during stirring until the mixture was fully solubilized at pH 4.92.

For `CCCc1nn(C)c2c(=O)[nH]c(-c3cc(S(=O)(=O)N4CCN(C)CC4)ccc3OCC)nc12` [sildenafil base], the “pH at which the mixture completely solubilized” value was 3.83, the “pH at which the mixture was fully solubilized” value was 4.92 and the dissolution (Example 1a: 840 mg in 40 ml, pH 5.6 (1M HCl), stirred 10 minutes) was “remaining opaque and undissolved”. The dissolution (Example 1a: 840 mg in 40 ml, stirred at pH 4.25 for 1 hour, final pH 4.28) was “totally transparent and without precipitate”, the dissolution (Example 1a: 840 mg in 40 ml, unadjusted pH 7.7, stirring 10 minutes) was “remained undissolved” and the dissolution (Example 1b: 840 mg with 840 mg sucralose in 40 ml, pH 5.6 (1M HCl), stirred 10 minutes) was “remaining opaque and undissolved”. For the same compound, the dissolution (Example 1b: 840 mg with 840 mg sucralose in 40 ml, unadjusted pH 7.7, stirring 10 minutes) was “remained undissolved” and the dissolution (Example 1c: 945 mg with 945 mg sucralose in 45 ml, unadjusted pH 7.7, stirring 10 minutes) was “remained undissolved”.
